Assay results as given in the supplement of paper PMC10307832.

Tests used:
Experiment in all cases: relative viability (nuclei count vs DMSO), 5 days (fraction); higher = more cells survive
[1] = compound: COc1cccc2cc(-c3nc([C@H]4CC[C@H](C(=O)O)CC4)n4ncnc(N)c34)[nH]c12 [OSI-027] + CCNC(=O)c1noc(-c2cc(C(C)C)c(O)cc2O)c1-c1ccc(CN2CCOCC2)cc1 [Luminespib] (partner 0.01 µM)
Summary of the method: (§1)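 Relative viability equals treated-well nuclei counts divided by vehicle-well nuclei counts. Counts came from 4× images of lung cancer cell lines grown in 1536-well plates for 5 days after pin-tool dosing on the day after seeding. Dosing used one drug alone or a fixed anchor-drug dose plus five library-drug doses (not always all listed) in √10 steps, and values are medians of duplicate plates.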

[2] = compound: COc1cccc2cc(-c3nc([C@H]4CC[C@H](C(=O)O)CC4)n4ncnc(N)c34)[nH]c12 [OSI-027] + NC(=O)Nc1cc(-c2cccc(F)c2)sc1C(=O)N[C@H]1CCCNC1 [AZD7762] (partner 0.2 µM)
Summary of the method: as §1

[3] = compound: CCCS(=O)(=O)Nc1ccc(F)c(C(=O)c2c[nH]c3ncc(-c4ccc(Cl)cc4)cc23)c1F [Vemurafenib] + COc1cc2c(Oc3ccc(NC(=O)C4(C(=O)Nc5ccc(F)cc5)CC4)cc3F)ccnc2cc1OCCCN1CCOCC1 [Foretinib] (partner 0.25 µM)
Summary of the method: as §1

[4] = compound: COc1cccc2cc(-c3nc([C@H]4CC[C@H](C(=O)O)CC4)n4ncnc(N)c34)[nH]c12 [OSI-027] + CC(=O)Nc1cccc(-n2c(=O)n(C3CC3)c(=O)c3c(Nc4ccc(I)cc4F)n(C)c(=O)c(C)c32)c1 [Trametinib] (partner 0.02 µM)
Summary of the method: as §1

| Cell Line | relative viability ([1]; first compound 0.03162 µM) | relative viability ([1]; first compound 0.1 µM) | relative viability ([1]; first compound 0.3162 µM) | relative viability ([1]; first compound 1 µM) | relative viability ([2]; first compound 0.01 µM) | relative viability ([2]; first compound 0.03162 µM) | relative viability ([2]; first compound 0.1 µM) | relative viability ([2]; first compound 0.3162 µM) | relative viability ([2]; first compound 1 µM) | relative viability ([3]; first compound 0.03162 µM) | relative viability ([3]; first compound 0.1 µM) | relative viability ([3]; first compound 0.3162 µM) | relative viability ([3]; first compound 1 µM) | relative viability ([1]; first compound 0.01 µM) | relative viability ([4]; first compound 0.01 µM) | relative viability ([4]; first compound 0.03162 µM) | relative viability ([4]; first compound 0.1 µM) | relative viability ([4]; first compound 0.3162 µM) | relative viability ([4]; first compound 1 µM) |
| --- | --- | --- | --- | --- | --- | --- | --- | --- | --- | --- | --- | --- | --- | --- | --- | --- | --- | --- | --- |
| ABC-1 | 0.321 | 0.405 | 0.377 | 0.386 | 0.886 | 0.764 | 0.728 | 0.555 | 0.602 | 1.05 | 1.16 | 1.19 | 1.05 |  |  |  |  |  |  |
| NCI-H1299 |  |  |  |  |  |  |  |  |  | 1.05 | 1.06 | 1 | 1.09 |  |  |  |  |  |  |
| LU99A | 0.221 | 0.288 | 0.22 | 0.192 | 0.462 | 0.321 | 0.28 | 0.133 | 0.171 | 0.87 | 0.867 | 0.819 | 0.723 | 0.25 | 0.581 | 0.508 | 0.424 | 0.342 | 0.209 |
| NCI-H2009 | 1.06 | 1.05 | 0.924 | 0.603 |  |  |  |  |  | 1.19 | 1.18 | 1.06 | 1.06 | 1.08 | 0.272 | 0.283 | 0.2 | 0.196 | 0.195 |
| LCLC-97TM1 | 0.688 | 0.776 | 0.378 | 0.211 | 0.245 | 0.301 | 0.371 | 0.276 | 0.18 | 0.974 | 0.854 | 0.985 | 0.971 | 0.846 | 0.168 | 0.182 | 0.157 | 0.147 | 0.168 |
| NCI-H1915 | 0.972 | 0.862 | 0.687 | 0.562 | 0.728 | 0.792 | 0.72 | 0.592 | 0.653 | 1.09 | 1.05 | 1.03 | 1 | 1.04 | 0.284 | 0.299 | 0.262 | 0.233 | 0.314 |
| NCI-H2342 | 0.616 | 0.82 | 0.617 | 0.514 | 0.444 | 0.426 | 0.553 | 0.414 | 0.346 | 1.14 | 0.943 | 1.05 | 0.942 | 0.783 | 0.802 | 0.816 | 0.724 | 0.687 | 0.556 |
| HCC-78 |  |  |  |  | 0.62 | 0.638 | 0.488 | 0.499 | 0.354 | 0.59 | 0.476 | 0.7 | 0.552 |  | 0.689 | 0.646 | 0.74 | 0.637 | 0.35 |
| A549 |  |  |  |  |  |  |  |  |  | 0.945 | 0.872 | 0.986 | 0.919 |  |  |  |  |  |  |
| NCI-H1650 | 0.234 | 0.208 | 0.214 | 0.219 |  |  |  |  |  |  | 0.649 |  | 1.19 | 0.208 | 0.485 | 0.504 | 0.614 | 0.6 | 0.408 |
| NCI-H1703 |  |  |  |  |  | 0.0974 |  | 0.127 | 0.119 | 0.358 | 0.307 | 0.329 | 0.374 |  |  |  |  |  |  |
| SK-MES-1 | 0.63 | 0.731 | 0.554 | 0.227 |  |  |  |  |  | 0.91 | 0.461 | 0.879 | 0.795 | 0.75 | 0.531 | 0.523 | 0.478 | 0.483 | 0.394 |
